According to US20220235065A1 (Epizyme, Inc., priority 2016, published 2022):

Assays:
[1] = system: H3K9me2 in MDA-MB-231 cells; test: MDA-MB-231 H3K9me2 in-cell western assay; assay type: cell-based; conditions: Homo sapiens, read-out: EHMT2 ICW (IC50 μM)
Source text: MDA-MB-231 cell line was purchased from ATCC (Manassas, Va., USA). RPMI/Glutamax medium, Penicillin-Streptomycin, Heat Inactivated Fetal Bovine Serum, and D-PBS were purchased from Life Technologies (Grand Island, N.Y., USA). Odyssey blocking buffer, 800CW goat anti-mouse IgG (H+L) antibody, and Licor Odyssey Infrared Scanner were purchased from Licor Biosciences, Lincoln, Nebr., USA. H3K9me2 mouse monoclonal antibody (Cat #1220) was purchased from Abcam (Cambridge, Mass., USA). 16% Paraformaldehyde was purchased from Electron Microscopy Sciences, Hatfield, Pa., USA). MDA-MB-231 cells were maintained in complete growth medium (RPMI supplemented with 10% v/v heat inactivated fetal bovine serum) and cultured at 37° C. under 5% CO2. UNC0638 was purchased from Sigma-Aldrich (St. Louis, Mo., USA).
General Procedure for MDA-MB-231 HEK9me2 In-Cell Western Assay.
Compound (100 nL) was added directly to 384-well cell plate. MDA-MB-231 cells (ATCC) were seeded in assay medium (RPMI/Glutamax supplemented with 10% v/v heat inactivated fetal bovine serum and 1% Penicillin/Streptomycin, Life Technologies) at a concentration of 3,000 cells per well to a Poly-D-Lysine coated 384-well cell culture plate with 50 μL per well. Plates were incubated at 37° C., 5% CO2 for 48 hours (BD Biosciences 356697). Plates were incubated at room temperature for 30 minutes and then incubated at 37° C., 5% CO2 for additional 48 hours. After the incubation, 50 μL per well of 8% paraformaldehyde (Electron Microscopy Sciences) in PBS was added to the plates and incubated at room temperature for 20 minutes. Plates were transferred to a Biotek 406 plate washer and washed 2 times with 100 μL per well of wash buffer (1×PBS containing 0.3% Triton X-100 (v/v)). Next, 60 μL per well of Odyssey blocking buffer (Licor Biosciences) was added to each plate and incubated for 1 hour at room temperature. Blocking buffer was removed and 20 μL of monoclonal primary antibody α-H3K9me2 (Abcam) diluted 1:800 in Odyssey buffer with 0.1% Tween 20 (v/v) were added and plates were incubated overnight (16 hours) at 4° C. Plates were washed 5 times with 100 μL per well of wash buffer. Next 20 μL per well of secondary antibody was added (1:500 800CW […] anti-mouse IgG (H+L) antibody (Licor Biosciences), 1:1000 DRAQ5 (Cell Signaling Technology) in Odyssey buffer with 0.1% Tween 20 (v/v)) and incubated for 1 hour at room temperature. The plates were washed 5 times with 100 μL per well wash buffer then 2 times with 100 μL per well of water. Plates were allowed to dry at room temperature then imaged on a Licor Odyssey Infrared Scanner (Licor Biosciences) which measured integrated intensity at 700 nm and 800 nm wavelengths. Both 700 and 800 channels were scanned.
% Inhibition Calculation.
First, the ratio for each well was determined by
Each plate included fourteen control wells of DMSO only treatment (Minimum Inhibition) as well as fourteen control wells (background wells) for maximum inhibition treated with control compound UNC0638 (Background wells).
The average of the ratio values for each well was calculated and used to determine the percent inhibition for each test well in the plate. Control compound was serially diluted three-fold in DMSO for a total of 10 test concentrations beginning at 1 μM. Percent inhibition was calculated as: […]
IC50 curves were generated using triplicate wells per concentration of compound. The IC50 is the concentration of compound at which measured methylation is inhibited by 50% as interpolated from the dose response curves. IC50 values were calculated using a non-linear regression (variable slope-four parameter fit model) with by the following formula
where Top is fixed at 100% and Bottom is fixed to 0%, [I]=concentration of inhibitor, IC50=half maximal inhibitory concentration and n=Hill Slope.

[2] = target: T1, EHMT1 (Homo sapiens, UniProt Q9H9B1); test: EHMT1 PEP (EHMT1 peptide enzyme assay); assay type: biochemical; conditions: peptide substrate enzyme assay
T1 sequence (Q9H9B1 1-1298): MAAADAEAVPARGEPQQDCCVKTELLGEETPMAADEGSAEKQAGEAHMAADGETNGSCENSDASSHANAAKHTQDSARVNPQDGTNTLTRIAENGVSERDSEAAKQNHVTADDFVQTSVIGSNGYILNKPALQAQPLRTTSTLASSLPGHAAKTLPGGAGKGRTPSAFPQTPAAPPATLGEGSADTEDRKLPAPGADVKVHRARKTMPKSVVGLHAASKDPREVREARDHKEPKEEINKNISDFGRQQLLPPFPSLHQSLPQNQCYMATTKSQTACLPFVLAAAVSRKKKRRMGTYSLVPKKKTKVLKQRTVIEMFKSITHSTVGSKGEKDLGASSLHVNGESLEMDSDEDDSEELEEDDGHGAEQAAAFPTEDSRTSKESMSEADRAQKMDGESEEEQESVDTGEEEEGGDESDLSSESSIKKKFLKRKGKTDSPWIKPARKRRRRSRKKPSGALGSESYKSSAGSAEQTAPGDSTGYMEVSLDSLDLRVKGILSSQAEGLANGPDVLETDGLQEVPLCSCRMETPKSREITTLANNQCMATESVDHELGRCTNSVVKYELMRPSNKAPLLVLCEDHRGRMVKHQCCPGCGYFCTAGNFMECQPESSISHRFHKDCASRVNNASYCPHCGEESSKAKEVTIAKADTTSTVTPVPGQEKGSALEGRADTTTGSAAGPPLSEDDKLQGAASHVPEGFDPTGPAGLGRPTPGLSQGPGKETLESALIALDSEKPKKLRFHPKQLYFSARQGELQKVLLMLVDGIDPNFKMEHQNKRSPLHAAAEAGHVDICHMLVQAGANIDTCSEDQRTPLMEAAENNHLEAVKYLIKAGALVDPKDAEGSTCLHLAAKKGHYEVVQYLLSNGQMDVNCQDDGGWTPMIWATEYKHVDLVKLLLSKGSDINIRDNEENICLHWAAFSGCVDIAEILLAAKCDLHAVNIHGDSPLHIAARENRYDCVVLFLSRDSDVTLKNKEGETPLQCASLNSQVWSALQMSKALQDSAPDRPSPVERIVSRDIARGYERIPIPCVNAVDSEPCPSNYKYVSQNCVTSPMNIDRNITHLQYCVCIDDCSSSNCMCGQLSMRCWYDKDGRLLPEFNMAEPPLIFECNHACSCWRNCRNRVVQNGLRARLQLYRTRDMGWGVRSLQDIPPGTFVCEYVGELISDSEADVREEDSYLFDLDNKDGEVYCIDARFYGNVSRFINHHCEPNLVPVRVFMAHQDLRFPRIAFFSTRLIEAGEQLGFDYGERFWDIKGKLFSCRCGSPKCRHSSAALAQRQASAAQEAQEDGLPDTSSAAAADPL

| SMILES | IC50 [1] [µM] | IC50 [2] [µM] |
| --- | --- | --- |
| CNc1cc(C)nc(Nc2ccc(OC)c(-c3cn4ccnc4cn3)c2)n1 [Compound 234] | 1 to 10 | 0.1 to 1 |
| CNc1cc(C)nc(Nc2ccc(OC)c(-c3cc4cnoc4cn3)c2)n1 [Compound 235] | > 10 | > 10 |
| COc1cc(NC2CCNCC2)ccc1-c1cc(C2CC2)cnn1 [Compound 236] | > 10 | > 10 |
| CNc1cc(C)nc(Nc2ccc(OC)c(-c3cc4[nH]ccc4c(C)n3)c2)n1 [Compound 237] | 0.1 to 1 | < 0.1 |

Continued, values first:

| IC50 [1] [µM] | IC50 [2] [µM] | SMILES |
| --- | --- | --- |
| < 0.1 | < 0.1 | CNC1=Nc2cc(-c3[nH]c4cnccc4c3C)c(OC)cc2C12CCC2 [Compound 238, 5′-methoxy-N-methyl-6′-(3-methyl-1H-pyrrolo[2,3-c]pyridin-2-yl)spiro[cyclobutane-1,3′-indol]-2′-amine] |
| > 10 | > 10 | CNc1cc(C)nc(Nc2ccc(C)c(C(=O)Nc3cccnc3)c2)n1 [Compound 239] |
| > 10 | 1 to 10 | CNc1cc(C)nc(Nc2ccc(Cl)c(C(=O)Nc3cccnc3)c2)n1 [Compound 240] |
| 0.1 to 1 | < 0.1 | CNc1cc(C)nc(Nc2ccc(C)c(-c3cc4ccncc4[nH]3)c2)n1 [Compound 241] |
| > 10 | > 10 | CNc1cc(C)nc(Nc2cccc(C(=O)Nc3cccnc3)c2)n1 [Compound 242] |
